Measurements as given in patent US12390437B2, “Itaconic acid derivatives and uses thereof intreating an inflammatory disease or a disease associated with an undesirable immune response” (Sitryx Therapeutics Limited, priority 2019, dated 2025).
Where two headings read alike, the source gives them in different places.

What was measured:
[1] = tested on: IL-1β cytokine output from THP-1s; test: THP-1 AlphaLISA IL-1β cytokine assay; format: cell-based, human; settings: Homo sapiens, LPS 24 hr then Nigericin 1 hour, read-out: IL-1β (IC50)
How it was run: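 AlphaLISA read-out of cytokine released into supernatants of differentiated THP-1 cells. Cells were PMA-treated for 72 h, exposed to compound for 30 min, stimulated with LPS for 24 h, then given nigericin for 1 h before harvest. IC50 values come from normalised concentration-response curves.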

[2] = tested on: IL-6 cytokine output from THP-1s; test: THP-1 AlphaLISA IL-6 cytokine assay; format: cell-based, human; settings: Homo sapiens; PMA-differentiated THP-1 cells, LPS 24 hr then Nigericin 1 hour
Experimental: Measuring Inhibitory Effects on IL-1β and IL-6 Cytokine Output from THP-1s
The cytokine inhibition profiles of compounds of formula (IW-1) were determined in a differentiated THP-1 cell assay. All assays were performed in RPMI-1640 growth medium (Gibco), supplemented with 10% fetal bovine serum (FBS; Gibco), 1% penicillin-streptomycin and 1% sodium pyruvate unless specified otherwise. The IL-1β and IL-6 cytokine inhibition assays were each run in a background of differentiated THP-1 cells as described below. All reagents described were from Sigma-Aldrich unless specified otherwise. Compounds were prepared as 10 mM DMSO stocks.
THP-1 cells were expanded as a suspension up to 80% confluence in appropriate growth medium. Cells were harvested, suspended, and treated with an appropriate concentration of phorbol 12-myristate 13-acetate (PMA) over a 72 hr period (37° C./5% CO2).
Following 72 hrs of THP-1 cell incubation, cellular medium was removed and replaced with fresh growth media containing 1% of FBS. Working concentrations of compounds were prepared separately in 10% FBS treated growth medium and pre-incubated with the cells for 30 minutes (37° C./5% CO2). Following the 30 minute compound pre-incubation, THP-1s were treated with an appropriate concentration of LPS and the THP-1s were subsequently incubated for a 24 hr period (37° C./5% CO2). An appropriate final concentration of Nigericin was then dispensed into the THP-1 plates and incubated for 1 hour (37° C./5% CO2) before THP-1 supernatants were harvested and collected in separate polypropylene 96-well holding plates.
Reagents from each of the IL-1β and IL-6 commercial kits (Perkin Elmer) were prepared and run according to the manufacturer's instructions. Subsequently, fluorescence signal detection in a microplate reader was measured (EnVision® Multilabel Reader, Perkin Elmer).
Percentage inhibition was calculated per cytokine by normalising the sample data to the high and low controls used within each plate (+/−LPS respectively). Percentage inhibition was then plotted against compound concentration and the 50% inhibitory concentration (IC50) was determined from the resultant concentration-response curve.

[3] = tested on: NRF2; test: NRF2 +/-GSH activation assay (DiscoverX PathHunter NRF2 translocation kit, U2OS cells); format: cell-based; settings: Homo sapiens; for Emax: read-out: NRF2 activation Emax; for EC50: read-out: NRF2 activation EC50
Experimental: Measuring Compound Activation Effects on the Anti-Inflammatory Transcription Factor NRF2 in DiscoverX PathHunter NRF2 Translocation Kit
Potency and efficacy of compounds of formula (IW-1) against the target of interest to activate NRF2 (nuclear factor erythroid 2-related factor 2) were determined using the PathHunter NRF2 translocation kit (DiscoverX). The NRF2 translocation assay was run using an engineered recombinant cell line, utilising enzyme fragment complementation to determine activation of the Keap1-NRF2 protein complex and subsequent translocation of NRF2 into the nucleus. Enzyme activity was quantified using a chemiluminescent substrate consumed following the formation of a functional enzyme upon PK-tagged NRF2 translocation into the nucleus.
The assay was run under either +/−GSH (glutathione) conditions to determine the attenuating activities of GSH against target compounds.
Additionally, a defined concentration of dimethyl fumarate was used as the ‘High’ control to normalise test compound activation responses to.
U2OS PathHunter eXpress cells were thawed from frozen prior to plating. Following plating, U2OS cells were incubated for 24 hrs (37° C./5% CO2) in commercial kit provided cell medium.
Following 24 hrs of U2OS incubation, cells were directly treated with an appropriate final concentration of compound, for −GSH conditions, or for +GSH conditions, an intermediate plate containing 6× working concentrations of compound stocks was prepared in a 6 mM working concentration of GSH solution (solubilised in sterile PBS). Following a 30 minute compound-GSH pre-incubation (37° C./5% CO2) for +GSH treatment, plated U2OS cells were incubated with an appropriate final concentration of compound and GSH.
Following compound (+/−GSH) treatment, the U2OS plates were incubated for a further 6 hours (37° C./5% CO2) before detection reagent from the PathHunter NRF2 commercial kit was prepared and added to test plates according to the manufacturer's instructions. Subsequently, the luminescence signal detection in a microplate reader was measured (PHERAstar®, BMG Labtech).
Percentage activation was calculated by normalising the sample data to the high and low controls used within each plate (+/−DMF). Percentage activation/response was then plotted against compound concentration and the 50% activation concentration (EC50) was determined from the plotted concentration-response curve.

[4] = THP-1, PMA-differentiated THP-1 cells
[5] = U2OS, normalised to dimethyl fumarate 'High' control, GSH condition not stated in Table 5
[6] = U2OS PathHunter cells, 6 hours, GSH condition not stated in Table 5

Row | Structure (SMILES) | IC50 [1, 4] | IC50 [2] | other results
1 | C=C(CC(=O)OC)C(=O)OC1COC1 [Example 15, 4-methyl 1-(oxetan-3-yl) 2-methylenesuccinate] | 15.4 µM | 8.9 µM | –
2 | C=C(CC(=O)OC(C)C)C(=O)OCCS(C)(=O)=O [Example 22, 4-isopropyl 1-(2-(methylsulfonyl)ethyl) 2-methylenesuccinate] | 15.4 µM | 7 µM | –
3 | C=C(CC(=O)OCCCCCCCC)C(=O)O[C@H]1CCOC1 [Example 23, (S)-4-octyl 1-(tetrahydrofuran-3-yl) 2-methylenesuccinate] | 8.2 µM | 4.5 µM | –
4 | C=C(CC(=O)OCCCCCCCC)C(=O)O[C@@H]1CCOC1 [Example 24, (R)-4-octyl 1-(tetrahydrofuran-3-yl) 2-methylenesuccinate] | 15 µM | 4.2 µM | –
5 | C=C(CC(=O)OC1CCCCCCC1)C(=O)OCCS(C)(=O)=O [Example 25, 4-cyclooctyl 1-(2-(methylsulfonyl)ethyl) 2-methylenesuccinate] | 1.9 µM | 1.9 µM | –
6 | C=C(CC(=O)OCCCCCCCC)C(=O)OC(C)CC#N (stereo not drawn) [Example 27, 1-(1-cyanopropan-2-yl) 4-octyl 2-methylenesuccinate] | 12.2 µM | 6.4 µM | –
7 | C=C(CC(=O)OCCCCCCCC)C(=O)OC1CCN(S(C)(=O)=O)CC1 [Example 28, 1-(1-(methylsulfonyl)piperidin-4-yl) 4-octyl 2-methylenesuccinate] | 5.2 µM | 2.2 µM | –
8 | C=C(CC(=O)OCCCCCCCC)C(=O)OCCOC [Example 29, 1-(2-methoxyethyl) 4-octyl 2-methylenesuccinate] | 18.4 µM | 7.9 µM | –
9 | C=C(CC(=O)OCCCCCCCC)C(=O)OCC(C)(C)C#N [Example 30, 1-(2-cyano-2-methylpropyl) 4-octyl 2-methylenesuccinate] | 11.3 µM | 4.8 µM | –
10 | C=C(CC(=O)OCCCCCCCC)C(=O)OC(C)COC (stereo not drawn) [Example 31, 1-(1-methoxypropan-2-yl) 4-octyl 2-methylenesuccinate] | 12.9 µM | 15.5 µM | –
11 | C=C(CC(=O)OCCCCCCCC)C(=O)OCC1(C#N)CC1 [Example 32, 1-((1-cyanocyclopropyl)methyl) 4-octyl 2-methylenesuccinate] | 18.9 µM | 9.5 µM | –
12 | C=C(CC(=O)OCCCCCCCC)C(=O)OCC(C)OC (stereo not drawn) [Example 33, 1-(2-methoxypropyl) 4-octyl 2-methylenesuccinate] | 14.1 µM | 11.7 µM | –
13 | C=C(CC(=O)OCCCCCCCC)C(=O)OCC(C)(C)OC [Example 34, 1-(2-methoxy-2-methylpropyl) 4-octyl 2-methylenesuccinate] | 31.8 µM | 16.1 µM | –
14 | C=C(CC(=O)OCCCCCCCC)C(=O)OCCN1CCOCC1 [Example 35, 1-(2-morpholinoethyl) 4-octyl 2-methylenesuccinate] | 6.7 µM | 3.7 µM | –
15 | C=C(CC(=O)OCCOCCOCC)C(=O)OCCS(C)(=O)=O [Example 36, 4-(2-(2-ethoxyethoxy)ethyl) 1-(2-(methylsulfonyl)ethyl) 2-methylenesuccinate] | 20.5 µM | 8.9 µM | –
16 | C=C(CC(=O)OCCCCCCCC)C(=O)OC(C)OC(C)=O (stereo not drawn) [Example 46, 1-(1-acetoxyethyl) 4-octyl 2-methylenesuccinate] | 6.7 µM | 3 µM | –
17 | C=C(CC(=O)OCCCCCCCC)C(=O)OC1CS(=O)(=O)C1 [Example 47, 1-(1,1-dioxidothietan-3-yl) 4-octyl 2-methylenesuccinate] | 3.3 µM | 3 µM | –
18 | C=C(CC(=O)OCCCCCCCC)C(=O)OCC(=O)OC(C)(C)C [Example 48, 1-(2-(tert-butoxy)-2-oxoethyl) 4-octyl 2-methylenesuccinate] | 10.1 µM | 5.1 µM | –
19 | C=C(CC(=O)OCCCCCCCC)C(=O)OCCN1CCN(C)CC1 [Example 51, 1-(2-(4-methylpiperazin-1-yl)ethyl) 4-octyl 2-methylenesuccinate] | 7.3 µM | 4 µM | –
20 | C=C(CC(=O)OCCCCCCCC)C(=O)OCCN1CCS(=O)(=O)CC1 [Example 52, 1-(2-(1,1-dioxidothiomorpholino)ethyl) 4-octyl 2-methylenesuccinate] | 8.5 µM | 2.5 µM | –
21 | C=C(CC(=O)OCCCCCCCC)C(=O)OCCNS(C)(=O)=O [Example 53, 1-(2-(methylsulfonamido)ethyl) 4-octyl 2-methylenesuccinate] | 9.3 µM | 5.4 µM | –
22 | C=C(CC(=O)OC1CC2(COC2)C1)C(=O)O[C@H]1[C@@H]2CC[C@H]1CN(S(C)(=O)=O)C2 [Example 157, 1-((endo)-3-(methylsulfonyl)-3-azabicyclo[3.2.1]octan-8-yl) 4-(2-oxaspiro[3.3]heptan-6-yl) 2-methylenesuccinate] | 41.6 µM | – | Emax [3, 5]: 29%; EC50 [3, 6]: > 100 µM
23 | C=C(CC(=O)OC1CCCOCC1)C(=O)O[C@H]1[C@@H]2CC[C@H]1CN(S(C)(=O)=O)C2 (stereo partly drawn) [Example 158, 1-((endo)-3-(methylsulfonyl)-3-azabicyclo[3.2.1]octan-8-yl) 4-(oxepan-4-yl) 2-methylenesuccinate] | 24.2 µM | – | Emax [3, 5]: 43%; EC50 [3, 6]: 72.8 µM
24 | C=C(CC(=O)OC(C)COCCCC)C(=O)O[C@H]1[C@@H]2CC[C@H]1CN(S(C)(=O)=O)C2 (stereo partly drawn) [Example 159, 4-(1-butoxypropan-2-yl) 1-((endo)-3-(methylsulfonyl)-3-azabicyclo[3.2.1]octan-8-yl) 2-methylenesuccinate] | 31.9 µM | – | Emax [3, 5]: 86%; EC50 [3, 6]: 13.8 µM
25 | C=C(CC(=O)OC1CC2(CCC2)C1)C(=O)OCC(O)(O)C(F)(F)F [Example 160, 4-spiro[3.3]heptan-2-yl 1-(3,3,3-trifluoro-2,2-dihydroxypropyl) 2-methylenesuccinate Hydrate] | – | – | IC50 ([1]; PMA-differentiated THP-1 cells): 8.1 µM; EC50 ([3]; U2OS, 6 h): 72.6 µM; Emax ([3]; U2OS): 7%
26 | C=C(CC(=O)OC1CCCCCC1)C(=O)OCc1nn[nH]n1 [Example 162, 1-(2H-tetrazol-5-yl)methyl 4-cycloheptyl 2-methylenesuccinate] | 14.7 µM | – | Emax [3, 5]: 164%; EC50 [3, 6]: 31.3 µM
27 | C=C(CC(=O)OC1CC2(CCC2)C1)C(=O)OCc1nn[nH]n1 [Example 163, 1-(2H-tetrazol-5-yl)methyl 4-spiro[3.3]heptan-2-yl 2-methylenesuccinate] | 23.9 µM | – | Emax [3, 5]: 0%; EC50 [3, 6]: > 100 µM
28 | C=C(C(=O)OCC(=O)O)C(O)C(=O)OC1CCCCCCC1 (stereo not drawn) [Example 189, 2-((4-(cyclooctyloxy)-3-hydroxy-2-methylene-4-oxobutanoyl)oxy)acetic acid] | 57.9 µM | – | Emax [3, 5]: 137%; EC50 [3, 6]: 18 µM
